{
  "source": "patent US20260306494A1",
  "about": "“LIQUID AND SOLID COMPOSITIONS OF IMIPRIDONE DERIVATIVES” (INSTITUT GUSTAVE ROUSSY, priority 2023, published 2026)",
  "key": {"physchem": {"assay": "physchem", "conditions": "water, solubility in water"}, "[1]": {"conditions": "in vivo; cited from earlier work"}, "recurrent H3K28M DMG": {"tested_on": "recurrent H3K28M DMG", "conditions": "human, in vivo; cited from earlier work"}},
  "data": [
    {"smiles": "Cc1ccccc1CN1C(=O)C2=C(CCN(Cc3ccccc3)C2)N2CCN=C12", "note": "[ONC201.2HCl]", "values": [
      {"measurement": "solubility", "setting": "physchem", "result": 41.4, "unit": "mg/mL"}
    ]},
    {"smiles": "NC(=O)c1cccnc1", "note": "[Nicotinamide]", "values": [
      {"measurement": "NOAEL (No Observed Adverse Effect Level)", "setting": "[1]", "result": "around 200 mg/kg bw"}
    ]},
    {"smiles": "Cc1ccccc1CN1C(=O)C2=C(CCN(Cc3ccccc3)C2)N2CCN=C12", "note": "[ONC201, 7-Benzyl-4-(2-methylbenzyl)-1,2,6,7,8,9-hexahydroimidazo[1,2-a]pyrido[3,4-e]pyrimidin-5 (4H)-one]", "values": [
      {"measurement": "response of patients", "setting": "recurrent H3K28M DMG", "result": "sustained response"}
    ]}
  ]
}
